According to PMC9732253, “Inhibition of the Phosphatidylinositol-3 Kinase Pathway Using Bimiralisib in Loss-of-Function NOTCH1-Mutant Head and Neck Cancer” (The Oncologist, 2022):

Method: All patients received 140 mg bimiralisib (PQR309) orally once daily on 2 consecutive days followed by 5 days without treatment weekly until unacceptable toxicity, tumor progression, patient request for withdrawal, investigator judgment, or death.
Radiologic tumor assessments were performed using computed tomography at baseline and every 6 weeks. Safety was continuously monitored.

## Nc1cc(C(F)(F)F)c(-c2nc(N3CCOCC3)nc(N3CCOCC3)n2)cn1 [Bimiralisib, 5-(4,6-dimorpholino-1,3,5-triazin-2-yl)-4-(trifluoromethyl)pyridin-2-amine]
7 patients of 8
  Patients with AEs (any severity) suspected to be related to treatment: 87.5%
8 patients
  AE leading to dose reduction: No patients
8 patients, 140 mg orally 2 consecutive days weekly
  Tolerability: well tolerated
Any grade, 2 patients of 8
  Aspiration pneumonia, AEs irrespective of causality: 25.0%
  Confusional state, AEs irrespective of causality: 25.0%
  Rash, AEs irrespective of causality: 25.0%
  Vomiting, AEs irrespective of causality: 25.0%
Any grade, 3 patients of 8
  Fatigue, AEs irrespective of causality: 37.5%
  Hyperglycemia, AEs irrespective of causality: 37.5%
  Nausea, AEs irrespective of causality: 37.5%
Both events unrelated to treatment
  Patients who died during the study: Two
Both hyperglycemia
  SAEs related to treatment with bimiralisib: Two
Five patients of 8
  Patients with severe AEs (SAEs, CTCAE grade ≥3): 62.5%
human, in vivo
  Infections and infestations, Grade 1, patients: 0 n (%)
  Infections and infestations, Grade 1, total number of events: 0
  Infections and infestations, Grade 2, patients: 2 (25.0) n (%)
  Infections and infestations, Grade 2, total number of events: 3
  Infections and infestations, Grade 3/4, total number of events: 3
  Sepsis, Grade 1, patients: 0 n (%)
  Sepsis, Grade 1, total number of events: 0
  Sepsis, Grade 2, patients: 0 n (%)
  Sepsis, Grade 2, total number of events: 0
  Sepsis, Grade 3/4, patients: 1 (12.5) n (%)
  Skin infection, AEs irrespective of causality: 25%
  Skin infection, Grade 1, patients: 0 n (%)
  Skin infection, Grade 1, total number of events: 0
  Skin infection, Grade 2, patients: 1 (12.5) n (%)
  Skin infection, Grade 2, total number of events: 1
  Skin infection, Grade 3/4, patients: 1 (12.5) n (%)
  Wound infection, Grade 1, patients: 0 n (%)
  Wound infection, Grade 1, total number of events: 0
  Wound infection, Grade 2, patients: 1 (12.5) n (%)
  Wound infection, Grade 2, total number of events: 1
  Wound infection, Grade 3/4, patients: 0 n (%)
In 7 patients
  Number of AEs (any severity) suspected to be related to treatment: 23
N = 8
  Acute respiratory distress syndrome, Grade 1, patients: 0 n (%)
  Acute respiratory distress syndrome, Grade 1, total number of events: 0
  Acute respiratory distress syndrome, Grade 2, patients: 0 n (%)
  Acute respiratory distress syndrome, Grade 2, total number of events: 0
  Acute respiratory distress syndrome, Grade 3/4, patients: 1 (12.5) n (%)
  Acute respiratory distress syndrome, Grade 3/4, total number of events: 1
  Alanine aminotransferase increased, Grade 1, patients: 0 n (%)
  Alanine aminotransferase increased, Grade 1, total number of events: 0
  Alanine aminotransferase increased, Grade 2, patients: 0 n (%)
  Alanine aminotransferase increased, Grade 2, total number of events: 0
  Alanine aminotransferase increased, Grade 3/4, patients: 1 (12.5) n (%)
  Alanine aminotransferase increased, Grade 3/4, total number of events: 1
  Anemia, Grade 1, patients: 0 n (%)
  Anemia, Grade 1, total number of events: 0
  Anemia, Grade 2, patients: 0 n (%)
  Anemia, Grade 2, total number of events: 0
  Anemia, Grade 3/4, patients: 1 (12.5) n (%)
  Anemia, Grade 3/4, total number of events: 1
  Any adverse event, Grade 1, patients: 8 (100.0) n (%)
  Any adverse event, Grade 1, total number of events: 29
  Any adverse event, Grade 2, patients: 3 (37.5) n (%)
  Any adverse event, Grade 2, total number of events: 13
  Any adverse event, Grade 3/4, patients: 5 (62.5) n (%)
  Any adverse event, Grade 3/4, total number of events: 15
  Aspartate aminotransferase increased, Grade 1, patients: 0 n (%)
  Aspartate aminotransferase increased, Grade 1, total number of events: 0
  Aspartate aminotransferase increased, Grade 2, patients: 0 n (%)
  Aspartate aminotransferase increased, Grade 2, total number of events: 0
  Aspartate aminotransferase increased, Grade 3/4, patients: 1 (12.5) n (%)
  Aspartate aminotransferase increased, Grade 3/4, total number of events: 1
  Asthenia, Grade 1, patients: 1 (12.5) n (%)
  Asthenia, Grade 1, total number of events: 1
  Asthenia, Grade 2, patients: 0 n (%)
  Asthenia, Grade 2, total number of events: 0
  Asthenia, Grade 3/4, patients: 0 n (%)
  Asthenia, Grade 3/4, total number of events: 0
  Blood and lymphatic system disorders, Grade 1, patients: 0 n (%)
  Blood and lymphatic system disorders, Grade 1, total number of events: 0
  Blood and lymphatic system disorders, Grade 2, patients: 0 n (%)
  Blood and lymphatic system disorders, Grade 2, total number of events: 0
  Blood and lymphatic system disorders, Grade 3/4, patients: 1 (12.5) n (%)
  Blood and lymphatic system disorders, Grade 3/4, total number of events: 1
  Blood creatinine increased, Grade 1, patients: 1 (12.5) n (%)
  Blood creatinine increased, Grade 1, total number of events: 1
  Blood creatinine increased, Grade 2, patients: 0 n (%)
  Blood creatinine increased, Grade 2, total number of events: 0
  Blood creatinine increased, Grade 3/4, patients: 0 n (%)
  Blood creatinine increased, Grade 3/4, total number of events: 0
  Blood glucose increased, Grade 1, patients: 1 (12.5) n (%)
  Blood glucose increased, Grade 1, total number of events: 1
  Blood glucose increased, Grade 2, patients: 0 n (%)
  Blood glucose increased, Grade 2, total number of events: 0
  Blood glucose increased, Grade 3/4, patients: 0 n (%)
  Blood glucose increased, Grade 3/4, total number of events: 0
  Cellulitis, Grade 1, patients: 0 n (%)
  Cellulitis, Grade 1, total number of events: 0
  Cellulitis, Grade 2, patients: 1 (12.5) n (%)
  Cellulitis, Grade 2, total number of events: 1
  Cellulitis, Grade 3/4, patients: 0 n (%)
  Cellulitis, Grade 3/4, total number of events: 0
  Chest pain, Grade 1, patients: 1 (12.5) n (%)
  Chest pain, Grade 1, total number of events: 1
  Chest pain, Grade 2, patients: 0 n (%)
  Chest pain, Grade 2, total number of events: 0
  Chest pain, Grade 3/4, patients: 0 n (%)
  Chest pain, Grade 3/4, total number of events: 0
  Confusional state, Grade 1, patients: 2 (25.0) n (%)
  Confusional state, Grade 1, total number of events: 2
  Confusional state, Grade 2, patients: 0 n (%)
  Confusional state, Grade 2, total number of events: 0
  Confusional state, Grade 3/4, patients: 0 n (%)
  Confusional state, Grade 3/4, total number of events: 0
  Cough, Grade 1, patients: 1 (12.5) n (%)
  Cough, Grade 1, total number of events: 1
  Cough, Grade 2, patients: 0 n (%)
  Cough, Grade 2, total number of events: 0
  Cough, Grade 3/4, patients: 0 n (%)
  Cough, Grade 3/4, total number of events: 0
  Decreased appetite, Grade 1, patients: 0 n (%)
  Decreased appetite, Grade 1, total number of events: 0
  Decreased appetite, Grade 2, patients: 1 (12.5) n (%)
  Decreased appetite, Grade 2, total number of events: 1
  Decreased appetite, Grade 3/4, patients: 0 n (%)
  Decreased appetite, Grade 3/4, total number of events: 0
  Dehydration, Grade 1, patients: 0 n (%)
  Dehydration, Grade 1, total number of events: 0
  Dehydration, Grade 2, patients: 1 (12.5) n (%)
  Dehydration, Grade 2, total number of events: 1
  Dehydration, Grade 3/4, patients: 0 n (%)
  Dehydration, Grade 3/4, total number of events: 0
  Diarrhea, Grade 1, patients: 0 n (%)
  Diarrhea, Grade 1, total number of events: 0
  Diarrhea, Grade 2, patients: 1 (12.5) n (%)
  Diarrhea, Grade 2, total number of events: 1
  Diarrhea, Grade 3/4, patients: 0 n (%)
  Diarrhea, Grade 3/4, total number of events: 0
  Disease progression, Grade 1, patients: 0 n (%)
  Disease progression, Grade 1, total number of events: 0
  Disease progression, Grade 2, patients: 0 n (%)
  Disease progression, Grade 2, total number of events: 0
  Disease progression, Grade 3/4, patients: 1 (12.5) n (%)
  Disease progression, Grade 3/4, total number of events: 1
  Dry skin, Grade 1, patients: 1 (12.5) n (%)
  Dry skin, Grade 1, total number of events: 1
  Dry skin, Grade 2, patients: 0 n (%)
  Dry skin, Grade 2, total number of events: 0
  Dry skin, Grade 3/4, patients: 0 n (%)
  Dry skin, Grade 3/4, total number of events: 0
  Dysarthria, Grade 1, patients: 1 (12.5) n (%)
  Dysarthria, Grade 1, total number of events: 1
  Dysarthria, Grade 2, patients: 0 n (%)
  Dysarthria, Grade 2, total number of events: 0
  Dysarthria, Grade 3/4, patients: 0 n (%)
  Dysarthria, Grade 3/4, total number of events: 0
  Ear and labyrinth disorders, Grade 1, patients: 2 (25.0) n (%)
  Ear and labyrinth disorders, Grade 1, total number of events: 2
  Ear and labyrinth disorders, Grade 2, patients: 0 n (%)
  Ear and labyrinth disorders, Grade 2, total number of events: 0
  Ear and labyrinth disorders, Grade 3/4, patients: 0 n (%)
  Ear and labyrinth disorders, Grade 3/4, total number of events: 0
  Ear pain, Grade 1, patients: 1 (12.5) n (%)
  Ear pain, Grade 1, total number of events: 1
  Ear pain, Grade 2, patients: 0 n (%)
  Ear pain, Grade 2, total number of events: 0
  Ear pain, Grade 3/4, patients: 0 n (%)
  Ear pain, Grade 3/4, total number of events: 0
  Eye disorder, Grade 1, patients: 1 (12.5) n (%)
  Eye disorder, Grade 1, total number of events: 1
  Eye disorder, Grade 2, patients: 0 n (%)
  Eye disorder, Grade 2, total number of events: 0
  Eye disorder, Grade 3/4, patients: 0 n (%)
  Eye disorder, Grade 3/4, total number of events: 0
  Eye disorders, Grade 1, patients: 1 (12.5) n (%)
  Eye disorders, Grade 1, total number of events: 1
  Eye disorders, Grade 2, patients: 0 n (%)
  Eye disorders, Grade 2, total number of events: 0
  Eye disorders, Grade 3/4, patients: 0 n (%)
  Eye disorders, Grade 3/4, total number of events: 0
  Fatigue, Grade 1, patients: 2 (25.0) n (%)
  Fatigue, Grade 1, total number of events: 2
  Fatigue, Grade 2, patients: 1 (12.5) n (%)
  Fatigue, Grade 2, total number of events: 1
  Fatigue, Grade 3/4, patients: 0 n (%)
  Fatigue, Grade 3/4, total number of events: 0
  Gait disturbance, Grade 1, patients: 1 (12.5) n (%)
  Gait disturbance, Grade 1, total number of events: 1
  Gait disturbance, Grade 2, patients: 0 n (%)
  Gait disturbance, Grade 2, total number of events: 0
  Gait disturbance, Grade 3/4, patients: 0 n (%)
  Gait disturbance, Grade 3/4, total number of events: 0
  Gastroesophageal reflux disease, Grade 1, patients: 1 (12.5) n (%)
  Gastroesophageal reflux disease, Grade 1, total number of events: 1
  Gastroesophageal reflux disease, Grade 2, patients: 0 n (%)
  Gastroesophageal reflux disease, Grade 2, total number of events: 0
  Gastroesophageal reflux disease, Grade 3/4, patients: 0 n (%)
  Gastroesophageal reflux disease, Grade 3/4, total number of events: 0
  Gastrointestinal disorders, Grade 1, patients: 2 (25.0) n (%)
  Gastrointestinal disorders, Grade 1, total number of events: 2
  Gastrointestinal disorders, Grade 2, patients: 3 (37.5) n (%)
  Gastrointestinal disorders, Grade 2, total number of events: 5
  Gastrointestinal disorders, Grade 3/4, patients: 0 n (%)
  Gastrointestinal disorders, Grade 3/4, total number of events: 0
  General disorders and administration site conditions, Grade 1, patients: 5 (62.5) n (%)
